According to publication PMC10254170, “Diastereoselective Synthesis of the Borylated D-Galactose Monosaccharide 3-Boronic-3-Deoxy-D-Galactose and Biological Evaluation in Glycosidase Inhibition and in Cancer for Boron Neutron Capture Therapy (BNCT)” (Molecules, 2023):
Where two headings read alike, the source gives them in different places.

How the values were obtained:
yeast α-glucosidase = experiment: Glycosidase inhibition, yeast α-glucosidase; format: biochemical; conditions: for inhibition %: in methanol
From the text: (§1) Glycosidase modulation studies need to explore selectivity as well as potency. Our drugs and controls are therefore screened against a panel of glycosidases in methanol (Table 1) to identify the glycosidase-related disease area(s), selectivity profile, and potency of biological action for each drug. The presence of organic boron covalently bonded to the drug structure also grants a reduced toxicity profile. Following the glycosidase inhibition range recommendations, an IC50 value >250 μm denotes weak inhibition, 100–249 μm denotes moderate inhibition, 10–99 μm good inhibition, 0.1–9 μm potent inhibition, and <0.1 μm very potent inhibition. […] Our boronated D-galactose 7 represents a novel lead in glycosidase inhibition.
(§2) The glycosidases screened are the following: rice α-glucosidase, yeast α-glucosidase, Bacillus α-glucosidase, rat intestinal maltase α-glucosidase, almond β-glucosidase, bovine liver β-glucosidase, coffee beans α-galactosidase, bovine liver β-galactosidase, Jack bean α-mannosidase, snail β-mannosidase, Penicillium decumbens α-L-rhamnosidase, bovine kidney α-L-fucosidase, Eschierichia coli β-glucuronidase, bovine liver β-glucuronidase, porcine kidney trehalase, Aspergillus niger amyloglucosidase, and bovine kidney N-acetyl-β-glucosaminidase. The disease areas for each glycosidase are summarized in [1].
(§3) The enzymes α-glucosidase (from yeast), β-glucosidases (from almond and bovine liver), α-galactosidase (from coffee beans), β-galactosidase (from bovine liver), α-mannosidase (from Jack bean), β-mannosidase (from snail), α-L-rhamnosidase (from Penicillium decumbens), α-L-fucosidase (from bovine kidney), trehalase (from porcine kidney), β-glucuronidases (from E. coli and bovine liver), amyloglucosidase (from A. niger), para-nitrophenyl glycosides, and various disaccharides were purchased from Sigma-Aldrich Co.
(§4) Brush border membranes were prepared from the rat small intestine according to the method of Kessler et al. and were assayed at pH 6.8 for rat intestinal maltase using maltose. For rat intestinal maltase, porcine kidney trehalase, and A. niger amyloglucosidase activities, the reaction mixture contained 25 mM maltose and the appropriate amount of enzyme, and the incubations were performed for 10–30 min at 37 °C. The reaction was stopped by heating at 100 °C for 3 min. After centrifugation (600 g; 10 min), the resulting reaction mixture was added to the Glucose CII-test Wako (Wako Pure Chemical Ind., Osaka, Japan). The absorbance at 505 nm was measured to determine the amount of the released D-glucose. Other glycosidase activities were determined using an appropriate para-nitrophenyl glycoside as substrate at the optimum pH of each enzyme. The reaction mixture contained 2 mM of the substrate and the appropriate amount of enzyme. The reaction was stopped by the addition of 400 mM Na2CO3. The released para-nitrophenol was measured spectrometrically at 400 nm. All reactions run in methanol.

almond β-glucosidase = experiment: Glycosidase inhibition, almond β-glucosidase; format: biochemical; conditions: for inhibition %: in methanol
From the text: as §1, §2, §3, §4

[1] = target: T1, bovine kidney α-L-fucosidase (Bos taurus, UniProt Q2KIM0); experiment: Glycosidase inhibition, bovine kidney α-L-fucosidase; format: biochemical
T1 construct: purchased Sigma-Aldrich Co; host or cells: bovine kidney
T1 sequence (Q2KIM0 23-468): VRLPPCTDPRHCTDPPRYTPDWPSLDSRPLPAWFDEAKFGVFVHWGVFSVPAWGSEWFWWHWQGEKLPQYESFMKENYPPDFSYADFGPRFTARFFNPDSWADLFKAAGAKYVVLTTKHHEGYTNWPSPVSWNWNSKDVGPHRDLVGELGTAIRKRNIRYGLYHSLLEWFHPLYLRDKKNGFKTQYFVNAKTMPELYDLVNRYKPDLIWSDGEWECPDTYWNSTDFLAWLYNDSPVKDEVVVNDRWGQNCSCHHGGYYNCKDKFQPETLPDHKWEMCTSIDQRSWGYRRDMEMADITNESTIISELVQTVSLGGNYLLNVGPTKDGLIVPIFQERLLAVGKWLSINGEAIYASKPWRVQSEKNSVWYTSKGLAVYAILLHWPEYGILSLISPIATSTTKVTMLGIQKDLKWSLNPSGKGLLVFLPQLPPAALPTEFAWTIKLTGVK
From the text: as §1, §2, §3, §4

[2] = system: HT29 (colorectal carcinoma); experiment: Cancer screening (MTT growth inhibition), HT29; format: cell-based; conditions: 72 h; for inhibition at 25 µM: HT-29, 25 µM of drug, read-out: Percentage (%) cell growth inhibition; for inhibition at 25 µM / Percentage (%) cell growth inhibition: n = 3, mean ± SEM; for Percentage (%) cell growth inhibition: 25 µM of drug
Method: All test agents were prepared as stock solutions (20 mM) in dimethyl sulfoxide (DMSO) and stored at −20 °C. Cell lines used in the study included: HT29 (colorectal carcinoma), U87 and SJ-G2 (glioblastoma), MCF-7 (breast carcinoma), A2780 (ovarian carcinoma), H460 (lung carcinoma), A431 (skin carcinoma), Du145 (prostate carcinoma), BE2-C (neuroblastoma), MiaPaCa-2 (pancreatic carcinoma), SMA560 (spontaneous murine astrocytoma), and ADDP (Cis Res Ovarian), together with one non-tumor-derived normal breast cell line (MCF10A). All cell lines were incubated in a humidified atmosphere with 5 % CO2 at 37 °C. The cancer cell lines were maintained in Dulbecco’s modified Eagle’s medium (DMEM; Sigma, Australia) supplemented with fetal bovine serum (10%), sodium pyruvate (10 mM), penicillin (100 IUmL^−1), streptomycin (100 µg mL^−1), and L-glutamine (2 mM).
Growth inhibition was determined by plating cells in duplicate in medium (100 µL) at a density of 2500–4000 cells per well in 96-well plates. On day 0 (24 h after plating), when the cells are in logarithmic growth, medium (100 µL) with or without the test agent was added to each well. After 72 h of drug exposure, growth inhibitory effects were evaluated using the (3-(4,5-dimethyltiazol-2-yl)-2,5-diphenyltetrazolium bromide) (MTT) assay and absorbance read at 540 nm. The percentage growth inhibition was calculated at a fixed concentration of 25 µM, based on the difference between the optical density values on day 0 and those at the end of drug exposure. Each data point is the mean ± the standard error of the mean (SEM) calculated from three replicates, which were performed on separate occasions and in separate cell line passages.

[3] = at 100 μM, in methanol, read-out: inhibition %
[4] = at 100 μM, read-out: NI: No inhibition

Row | Compound | NI: No inhibition (yeast α-glucosidase; at 1000 μM) | inhibition % (yeast α-glucosidase; at 1000 μM) | NI: No inhibition (almond β-glucosidase; at 1000 μM) | inhibition % (almond β-glucosidase; at 1000 μM) | inhibition at 1000 µM ([1]; at 1000 μM, in methanol, read-out: inhibition %) | inhibition at 1000 µM ([1]; at 1000 μM, read-out: NI: No inhibition) | inhibition at 25 µM ([2]; Homo sapiens) | GI50 ([2]; Homo sapiens, HT-29, dose response, read-out: GI50 = Concentration that inhibits cell growth by 50%) | NI: No inhibition (yeast α-glucosidase; at 100 μM) | inhibition % (yeast α-glucosidase; at 100 μM) | NI: No inhibition (almond β-glucosidase; at 100 μM) | inhibition % (almond β-glucosidase; at 100 μM) | NI: No inhibition ([1]; at 100 μM) | inhibition % ([1]; at 100 μM, in methanol) | Percentage (%) cell growth inhibition [2] | inhibition at 100 µM [1, 3] | inhibition at 100 µM [1, 4] | NI: No inhibition ([1]; at 1000 μM) | inhibition % ([1]; at 1000 μM, in methanol)
1 | OCC1OC(O)C(O)C(B(O)O)C1O [Compound 7, 3-Boronic-3-Deoxy-D-galactose] | NI (No inhibition (less than 50% inhibition at 1000 μM)) | 12.1% | NI (No inhibition (less than 50% inhibition at 1000 μM)) | 1.3% | 1.3% | < 50% | -2 ± 2% | > 50 µM |  |  |  |  |  |  |  |  |  |  | 
2 | N[C@@H](Cc1ccc(B(O)O)cc1)C(=O)O [^10B-BPA] |  |  |  |  |  |  |  |  | NI (No inhibition (less than 50% inhibition at 100 μM)) | 0% | NI (No inhibition (less than 50% inhibition at 100 μM)) | 0% | NI (No inhibition (less than 50% inhibition at 100 μM)) | 0% | 15 ± 4% |  |  |  | 
3 | CC1(C)OCC(C2OC3OC(C)(C)OC3C2[B-]23OCC[NH+]2CCO3)O1 [Compound 6, 3-Deoxy-3-Boronodiethanolamine-1,2:5,6-Di-O-isopropylidene-α-D-galactofuranose] |  |  |  |  |  |  | 10 ± 5% |  | NI (No inhibition (less than 50% inhibition at 100 μM)) | 0% | NI (No inhibition (less than 50% inhibition at 100 μM)) | 0.3% |  |  |  | 6.5% | < 50% |  | 
4 | Borocaptate sodium [BSH] | NI (No inhibition (less than 50% inhibition at 1000 μM)) | 6.9% | NI (No inhibition (less than 50% inhibition at 1000 μM)) | 0% |  |  |  |  |  |  |  |  |  |  | 3 ± 2% |  |  | NI (No inhibition (less than 50% inhibition at 1000 μM)) | 0%
5 | N[C@@H](Cc1ccc(B(O)O)cc1)C(=O)O [BPA, 4-borono-L-phenylalanine] |  |  |  |  |  |  | 14% |  | NI (No inhibition (less than 50% inhibition at 100 μM)) | 0% | NI (No inhibition (less than 50% inhibition at 100 μM)) | 0% |  |  |  | 0% | < 50% |  | 
